Results reported in patent US20240409519A1, “HYDROGENATED QUINOXALINES” (OTSUKA PHARMACEUTICAL CO., LTD., priority 2021, published 2024).

Columns and labels:
[1] = molecular target: T1, CYP2C9 (Homo sapiens, UniProt P11712); assay: CYP inhibition test (1): inhibition rate (%) at one concentration, CYP2C9; format: in vitro ADME; conditions: human liver microsomes, pH 7.4, probe diclofenac (0.005 mmol/L); test compound 0.01 mmol/L, human liver microsome 0.1 mg/mL, substrate diclofenac, 37° C. 10 minutes; read-out: inhibition rate (%) 2C9
T1 construct: a human liver microsome solution containing three CYP-specific substrates; from tissue; host or cells: human liver microsomes
T1 sequence (P11712 whole entry): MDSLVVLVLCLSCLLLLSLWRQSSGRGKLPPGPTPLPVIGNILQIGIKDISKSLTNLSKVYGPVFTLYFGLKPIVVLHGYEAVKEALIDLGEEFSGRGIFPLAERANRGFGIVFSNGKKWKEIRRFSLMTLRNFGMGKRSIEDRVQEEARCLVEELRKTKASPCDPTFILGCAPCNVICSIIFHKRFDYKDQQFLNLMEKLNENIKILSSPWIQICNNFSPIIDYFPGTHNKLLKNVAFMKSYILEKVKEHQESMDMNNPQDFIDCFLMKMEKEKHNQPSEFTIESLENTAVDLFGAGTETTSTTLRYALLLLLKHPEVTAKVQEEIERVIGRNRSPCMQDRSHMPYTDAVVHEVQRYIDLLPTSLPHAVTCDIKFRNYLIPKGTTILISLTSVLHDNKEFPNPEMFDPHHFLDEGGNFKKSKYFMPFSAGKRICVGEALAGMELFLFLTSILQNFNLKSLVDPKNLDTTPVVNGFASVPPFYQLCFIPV
Protocol: (§1) A metabolic reaction was initiated by adding and mixing a test compound solution (final concentration 0.01 mmol/L) and a NADH/NADPH solution (final concentration 1 mmol/L) to a human liver microsome solution containing three CYP-specific substrates (final concentration 100 mmol/L potassium phosphate buffer solution (pH 7.4), 5 mmol/L magnesium chloride, 0.1 mg/mL human liver microsome, 0.005 mmol/L diclofenac (for CYP2C9), 0.01 mmol/L bufuralol (for […]), 0.005 mmol/L midazolam (for CYP3A4)). As an internal standard solution, a solution of each of stable isotopes of the metabolites (50 ng/mL [13C6] hydroxy diclofenac, 5 ng/mL [2H9] hydroxy bufuralol, and 5 ng/mL [13C6] hydroxy midazolam (all stable isotopes)) in methanol was prepared and used as a quenching solution.
(§2) Specifically, a metabolic reaction was initiated by adding and mixing 2 μL of a solution of a test compound in acetonitrile (or acetonitrile as a control) to 178 μL of a human liver microsome solution in ice water, followed by preincubation at 37° C. for 1 minute, and then adding 20 μL of a NADH/NADPH solution thereto. After incubation at 37° C. for 10 minutes, 50 μL of the reaction mixture was taken, and then it was added and mixed to 500 μL of a quenching solution to quech the reaction. The mixture was centrifuged (6130 g, 4° C., 10 minutes) and the supernatant was used as a sample for LC-MS/MS.
(§3) Peak area ratio ([peak area of metabolite]/[peak area of corresponding stable isotope]) was calculated for a metabolite and a stable isotope of the metabolite as measurement object. By comparing the peak area ratio of each test compound solution with that of the control, the inhibition rate (%) of each CYP species for each test compound was calculated from (1-[peak area ratio of each test compound solution]/[peak area ratio of control])×100.

[2] = molecular target: T2, CYP2D6 (Homo sapiens, UniProt P10635); assay: CYP inhibition test (1): inhibition rate (%) at one concentration, CYP2D6; format: in vitro ADME; conditions: human liver microsomes, pH 7.4, probe bufuralol (0.01 mmol/L); test compound 0.01 mmol/L, human liver microsome 0.1 mg/mL, substrate bufuralol, 37° C. 10 minutes; read-out: inhibition rate (%) 2D6
T2 construct: a human liver microsome solution containing three CYP-specific substrates; from tissue; host or cells: human liver microsomes
T2 sequence (P10635 whole entry): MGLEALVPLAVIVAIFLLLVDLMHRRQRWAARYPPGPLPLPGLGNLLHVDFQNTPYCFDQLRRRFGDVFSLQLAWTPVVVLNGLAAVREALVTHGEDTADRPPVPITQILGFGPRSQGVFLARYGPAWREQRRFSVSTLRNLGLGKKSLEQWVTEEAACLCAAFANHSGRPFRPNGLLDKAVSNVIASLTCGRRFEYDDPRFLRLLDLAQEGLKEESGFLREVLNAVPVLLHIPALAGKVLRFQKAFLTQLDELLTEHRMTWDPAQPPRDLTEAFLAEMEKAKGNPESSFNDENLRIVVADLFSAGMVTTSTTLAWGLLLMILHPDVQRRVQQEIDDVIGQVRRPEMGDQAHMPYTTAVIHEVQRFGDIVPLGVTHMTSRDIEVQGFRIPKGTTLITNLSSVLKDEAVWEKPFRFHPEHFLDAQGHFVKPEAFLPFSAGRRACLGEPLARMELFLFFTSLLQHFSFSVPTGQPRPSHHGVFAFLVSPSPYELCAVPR
Protocol: as §1, §2, §3

[3] = Protein binding rate test (human serum, equilibrium dialysis); format: in vitro ADME; conditions: test compound 0.001 mmol/L, equilibrium dialysis 37° C. 6 hours
Protocol: A serum sample was prepared by adding a test compound solution to a human serum (final concentration of the test compound: 0.001 mmol/L). The serum sample and Dulbecco's Phosphate-Buffered Saline (D-PBS(−)) were added to the wells separated by a dialysis membrane to start the reaction. A solution of the internal standard in methanol was prepared and used as a quenching solution.
Specifically, the dialysis membrane (cut-off molecular weight 12000-14000) was pre-conditioned by immersing it in distilled water, followed by 20% ethanol. Then, the membrane was washed with D-PBS(−) and set in an equilibrium dialysis kit. Then, 150 μL of D-PBS(−) was added to one part of each well divided by the dialysis membrane, and 150 μL of serum sample was added to the other part. After sealing all wells and incubation at 37° C. for 6 hours, 30 μL from the serum side and 90 μL from the PBS side of each well were collected and mixed with 90 μL of D-PBS(−) or 30 μL of blank serum and 480 μL of a quenching solution to quench the reaction.
(§4) The mixture was centrifuged (6130 g, 4° C., 10 minutes) and the supernatant was used as a sample for LC-MS/MS.
Peak area ratio ([peak area of test compound]/[peak area of internal standard]) was calculated for the test compound and the internal standard. By comparing the peak area ratio of the PBS side for each test compound with that of the serum side, the protein binding rate (%) of each test compound was calculated from (1-[peak area ratio of PBS side]/[peak area ratio of serum side])×100.

[4] = Metabolic stability test (human liver microsome, hepatic intrinsic clearance); format: in vitro ADME; conditions: human liver microsomes, pH 7.4; human liver microsome 0.2 mg/mL, test compound 0.001 mmol/L, 37° C., 0, 10 and 20 minutes
Protocol: A metabolic reaction was initiated by adding and mixing a test compound solution (final concentration 0.001 mmol/L) and a NADH/NADPH solution (final concentration 1 mmol/L) to a human liver microsome solution (final concentration 100 mmol/L potassium phosphate buffer solution (pH 7.4), 5 mmol/L magnesium chloride, 0.2 mg/ml, human liver microsome). A solution of the internal standard in methanol was prepared and used as a quenching solution.
Specifically, a metabolic reaction was initiated by adding and mixing 2.5 μL of a solution of a test compound in acetonitrile to 222.5 μL of a human liver microsome solution in ice water, followed by preincubation at 37° C. for 1 minute, and then adding 25 μL of a NADH/NADPH solution thereto.
as §4
Peak area ratio ([peak area of test compound]/[peak area of internal standard]) was calculated for the test compound and the internal standard.
The residual ratio of the test compound was calculated from ([Ratio of peak areas at each reaction time]/[Ratio of peak areas at 0 minute reaction time]).

[5] = molecular target: T3, serotonin (5-HT) uptake (Rattus norvegicus, UniProt P31652); assay: Serotonin (5-HT) uptake inhibitory activity in rat brain synaptosome; format: biochemical; conditions: rat frontal cortex synaptosome, tritium-labeled 5-HT 8 nM; read-out: IC50 (nM), serotonin (5-HT) uptake inhibition
T3 construct: used as crude synaptosomal fraction; from tissue; host or cells: rat frontal cortex, crude synaptosomal fraction
T3 sequence (P31652 whole entry): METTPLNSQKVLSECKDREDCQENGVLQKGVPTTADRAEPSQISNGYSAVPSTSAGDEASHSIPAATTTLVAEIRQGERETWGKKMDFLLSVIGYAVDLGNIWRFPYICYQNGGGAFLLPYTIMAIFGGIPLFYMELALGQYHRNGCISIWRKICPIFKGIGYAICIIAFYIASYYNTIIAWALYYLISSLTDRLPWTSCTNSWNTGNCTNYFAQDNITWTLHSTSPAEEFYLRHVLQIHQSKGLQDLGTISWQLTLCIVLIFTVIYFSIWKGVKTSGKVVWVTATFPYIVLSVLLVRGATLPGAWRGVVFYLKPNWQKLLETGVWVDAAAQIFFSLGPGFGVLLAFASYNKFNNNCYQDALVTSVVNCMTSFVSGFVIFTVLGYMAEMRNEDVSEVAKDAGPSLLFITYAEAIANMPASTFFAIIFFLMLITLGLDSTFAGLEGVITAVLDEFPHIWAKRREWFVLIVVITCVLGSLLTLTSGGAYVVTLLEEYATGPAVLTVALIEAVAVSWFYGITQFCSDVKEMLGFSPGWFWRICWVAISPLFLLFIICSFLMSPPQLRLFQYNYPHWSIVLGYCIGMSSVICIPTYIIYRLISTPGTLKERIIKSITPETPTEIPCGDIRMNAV
Protocol: Male Wistar rats were decapitated, each brain was removed, and the frontal cortex was cut out. […] The homogenate was centrifuged at 1000 g at 4° C. for 10 minutes, and the supernatant was further centrifuged at 20000 g at 4° C. for 20 minutes. The pellet was suspended in an incubation buffer (20 mM Hepes buffer (pH 7.4) containing 10 mM glucose, 145 mM sodium chloride, 4.5 mM potassium chloride, 1.2 mM magnesium chloride and 1.5 mM calcium chloride) and used as crude synaptosomal fraction.
Each well of a 96-well round-bottom plate was used for the uptake reaction in a total volume of 200 μL solution containing purgurin (final concentration 10 μM) and ascorbic acid (final concentration 0.2 mg/mL). In other words, solvent, unlabeled 5-HT or step-diluted test compound was added to each well, and one-tenth of the final volume of the synaptosomal fraction was added to each well, followed by pre-incubation at 37° C. for 10 minutes, and then tritium-labeled 5-HT solution (final concentration 8 nM) was added and the uptake reaction was initiated at 37° C. After 10 minutes, the uptake reaction was terminated by suction filtration onto a 96-well glass fiber filter plate. The filters were rinsed with cold physi-ological saline solution, dried thoroughly, and micro scintillation 0 (Perkin-Elmer) was added thereto. Then, the residual radioactivity on the filters was measured.
The uptake value when only solvent was added was set as 100%, the uptake value when unlabeled 5-HT (final concentration 10 μM) was added as 0% (nonspecific uptake value), and the 50% inhibitory concentration was calculated from the concentration of the test compound and its inhibitory activity.

inhibition at 10 min, 0.01 mmol/L [1] [%]	inhibition at 10 min, 0.01 mmol/L [2] [%]	fraction unbound at 6 h, 0.001 mmol/L [3]	microsomal CLint at 0.001 mmol/L [4] [µL/min/mg]	IC50 [5] [nM]	Structure (SMILES)
-8.3	17	0.553	< 50	17	CC1(C)CN(c2ccc(OCCO)c3occc23)[C@H]2CCCC[C@H]2N1 [Example 51]
8.9	38.8	0.289	< 50	37.3	Cc1c(OC(F)(F)CO)ccc(N2CC(C)(C)N[C@H]3CCCC[C@@H]32)c1F [Example 79]
12.6	21.9	0.308	< 50	98.3	CC1(C)CN(c2cc(Cl)c(OC(F)(F)CO)cc2F)[C@@H]2CCCC[C@H]2N1 [Example 76]
2	20.9	0.21	57	62.8	CC1(C)CN(c2ccc(OC(F)(F)CO)c(Cl)c2F)[C@@H]2CCCC[C@H]2N1 [Example 80]
5.8	5.9	0.471	< 50	62.7	C[C@@H]1CN(c2ccc(OC(F)(F)CO)c(Cl)c2)[C@H]2CCCC[C@@H]2N1 [Example 19]
4.8	21.5	0.267	< 50	8.7	CC1(C)CN(c2ccc(OC(F)(F)CO)c(F)c2F)[C@H]2CCCC[C@H]2N1 [Example 73]
9.3	14.9	0.294	58	30.3	Cc1c(N2CC(C)(C)N[C@@H]3CCCC[C@@H]32)ccc(OC(F)(F)CO)c1F [Example 57]
-0.7	-7.8	0.413	< 50	57.4	Cc1cc(N2CC(C)(C)N[C@@H]3CCCC[C@@H]32)ccc1OC(F)(F)CO [Example 48]
2.8	16.1	0.358	< 50	22.9	Cc1cc(N2CC(C)(C)N[C@@H]3CCCC[C@@H]32)cc(F)c1OC(F)(F)CO [Example 58]
7.5	14.2	0.767	< 50	39.6	COc1cc(N2CC3(CCC3)N[C@H]3CCCC[C@@H]32)ccc1OCCO [Example 11]
-7.6	41.8	0.551	< 50	7.7	CC1(C)CN(c2ccc(OCCO)c3occc23)[C@@H]2CCCC[C@@H]2N1 [Example 50]
1.7	17.9	0.766	< 50	55.4	CC1(C)CN(c2cc(F)c(OCCO)cc2F)[C@H]2CCCC[C@H]2N1 [Example 72]
9.2	23	0.73	< 50	55	CC1(C)CN(c2ccc(OCCO)c(F)c2)[C@H]2CCCC[C@H]2N1 [Example 52]
10.2	21.6	0.499	< 50	8.8	CC1(C)CN(c2ccc(OCCO)cc2Cl)[C@H]2CCCC[C@H]2N1 [Example 64, 2-(3-chloro-4-((4aR,8aS)-3,3-dimethyloctahydroquinoxalin-1(2H)-yl)phenoxy)ethan-1-ol 1/2fumarate]
8.1	20.1	0.686	< 50	10	OCCOc1ccc(N2CC3(CCC3)N[C@H]3CCCC[C@@H]32)cc1 [Example 8]
13.6	20.5	0.615	< 50	5.8	Cc1cc(N2CC3(CCC3)N[C@H]3CCCC[C@@H]32)cc(F)c1OCCO [Example 14]
7.9	18.1	0.411	< 50	42.3	CC1(C)CN(c2cc(F)c(OC(F)(F)CO)cc2F)[C@H]2CCCC[C@@H]2N1 [Example 77]
14.8	45.6	0.211	< 50	5.7	Cc1c(OC(F)(F)CO)ccc(N2CC(C)(C)N[C@H]3CCCC[C@H]32)c1F [Example 69, 2-(4-((4aS,8aR)-3,3-dimethyloctahydroquinoxalin-1(2H)-yl)-3-fluoro-2-methylphenoxy)-2,2-difluoroethan-1-ol 1/2fumarate]
15.8	28.4	0.195	< 50	7	Cc1c(OC(F)(F)CO)ccc(N2CC(C)(C)N[C@@H]3CCCC[C@@H]32)c1F [Example 70]
